One experiment concerns Puccinia recondita f.sp. tritici. Kind of experiment: Puccinia recondita f.sp. tritici (wheat brown rust) leaf disk assay. It is filed as in vivo. The settings on record: foliar, 216 h, preventive, nine days after inoculation, read-out: control of fungal infection, Puccinia recondita f.sp. tritici.
For `CCc1ncnc(N2C3CCC2CC(=NOCc2cc(C)cc(C)c2)C3)c1Cl` [Example 5.11], the pest or weed control at 200 ppm is ≥ 80%.
On the same count and under the same terms, the value for `CC(NC(=O)CC1CC2CCC(C1)N2c1ncnc2sccc12)c1ccccc1` (stereo not drawn) [Example 7.13] was ≥ 80%.
The same measure, in the same setting: the value for `CCCOC(=O)c1ccc(OC2C[C@H]3CC[C@@H](C2)N3c2ncnc3sccc23)cc1` (stereo partly drawn) [Example 2.226] was ≥ 80%.
On the same count and under the same terms, in the case of `C(#Cc1ccccc1)CC=C1CC2CCC(C1)N2c1ncnc2sccc12` [Example 3.26] it was ≥ 80%.
On to `Cn1cc(C(=O)N2[C@@H]3CC[C@H]2CC(Oc2cccc(C(F)(F)F)n2)C3)c(C(F)(F)F)c1` (stereo partly drawn) [Example 2.197], for which the pest or weed control at 200 ppm was ≥ 80%.
Same read-out and setting: the value for `CCCNC(=O)CC1CC2CCC(C1)N2c1ncnc(CC)c1Cl` (stereo not drawn) [Example 7.30] was ≥ 80%; that for `CC(=O)CCc1ccc(OC2C[C@H]3CC[C@@H](C2)N3c2ncnc3sccc23)cc1` (stereo partly drawn) [Example 2.40] was ≥ 80%; that for `C#CCN(CC#C)C1C[C@H]2CC[C@@H](C1)N2c1ncnc2sccc12` (stereo partly drawn) [Example 4.15] was ≥ 80%.
Regarding `CCc1ncnc(N2C3CCC2CC(=NOCc2cc(F)ccc2Br)C3)c1Cl` [Example 5.83], the pest or weed control at 200 ppm was ≥ 80%.
Still for that read-out and setting: the value for `CCc1ncnc(N2C3CCC2CC(=CC(=O)NC(C)c2ccccc2)C3)c1Cl` (stereo not drawn) [Example 3.10] was ≥ 80%; that for `CCc1ncnc(N2C3CCC2CC(CC(=O)NC(C)c2ccccc2)C3)c1Cl` (stereo not drawn) [Example 7.31] was ≥ 80%.
Still for that read-out and setting: in the case of `O=C(Cc1ccccc1)c1ccc(OC2C[C@H]3CC[C@@H](C2)N3c2ncnc3sccc23)cc1` (stereo partly drawn) [Example 1.257] it was ≥ 80%.

For a further experiment, the system named is Erysiphe graminis f.sp. tritici. Kind of experiment: Erysiphe graminis f.sp. tritici (wheat powdery mildew) leaf disk assay. To be noted: Blumeria graminis, foliar, 96 h, preventive, four days after inoculation, read-out: control of fungal infection, Erysiphe graminis fsp. tritici. Type of experiment: in vivo.
Consider `CCC(=O)c1cc(F)c(OC2C[C@H]3CC[C@@H](C2)N3c2ncnc(CC)c2Cl)c(F)c1` (stereo partly drawn) [Example 2.207], for which the pest or weed control at 200 ppm is ≥ 80%.
Same read-out and setting: the value for `CCc1ncnc(N2[C@@H]3CC[C@H]2CC(Oc2c(C(C)=O)cc(Cl)c4ccccc24)C3)c1Cl` (stereo partly drawn) [Example 2.187] was ≥ 80%; that for `COCc1ncnc(N2[C@@H]3CC[C@H]2CC(Oc2cc(C(F)(F)F)ccn2)C3)c1OC` (stereo partly drawn) [Example 2.152] was ≥ 80%; that for `CCc1ncnc(N2C3CCC2CC(=NOCc2cc(F)cc(C(F)(F)F)c2)C3)c1Cl` [Example 5.96] was ≥ 80%.
On the same count and under the same terms, in the case of `CCc1ncnc(N2C3CCC2CC(=NOc2cc(Oc4ccccc4)ncn2)C3)c1Cl` [Example 5.108] it was ≥ 80%.
Same read-out and setting: in the case of `COc1ccc(OC2C[C@H]3CC[C@@H](C2)N3c2ncnc3sccc23)c(Cl)c1` (stereo partly drawn) [Example 2.16] it was ≥ 80%; in that of `Cc1c(Cl)ncnc1N1[C@@H]2CC[C@H]1CC(Oc1cccc(C(F)(F)F)n1)C2` (stereo partly drawn) [Example 2.94], ≥ 80%.
Consider `CSc1ccc(OC2C[C@H]3CC[C@@H](C2)N3c2ncnc3sccc23)cc1C` (stereo partly drawn) [Example 2.41], for which the pest or weed control at 200 ppm is ≥ 80%.
The same measure, in the same setting: in the case of `CN(C)c1cc(C(F)(F)F)nc(ON=C2CC3CCC(C2)N3c2ncnc3sccc23)n1` [Example 5.130] it was ≥ 80%; in that of `c1ccc2c(c1)CCC2c1ccc(OC2C[C@H]3CC[C@@H](C2)N3c2ncnc3sccc23)cc1` (stereo partly drawn) [Example 2.53], ≥ 80%; in that of `Cc1nc(ON=C2CC3CCC(C2)N3c2ncnc3sccc23)cc(N(C)C)n1` [Example 5.209], ≥ 80%.
For `ON=C1CC2CCC(C1)N2c1ncnc2sccc12` [Example 5.127], the pest or weed control at 200 ppm was ≥ 80%.
`c1cncc(CON=C2CC3CCC(C2)N3c2ncnc3sccc23)c1` [Example 5.133]: the pest or weed control at 200 ppm is ≥ 80%.
Still for that read-out and setting: the value for `CCc1ncnc(N2[C@@H]3CC[C@H]2CC(Oc2cccc(C(F)(F)F)c2F)C3)c1Cl` (stereo partly drawn) [Example 2.148] was ≥ 80%; that for `CCc1ncnc(N2C3CCC2CC(=NOc2cc(C)nc(SC)n2)C3)c1Cl` [Example 5.94] was ≥ 80%.

The values above are taken from patent US20100331348A1, “TROPANE DERIVATIVES USEFUL AS PESTICIDES” (SYNGENTA CROP PROTECTION, INC., priority 2007, published 2010).
